Data from patent US20150141470A1, “DIAGNOSTIC AND TREATMENT METHODS IN PATIENTS HAVING OR AT RISK OF DEVELOPING RESISTANCE TO CANCER THERAPY” (The Broad Institute, Inc., priority 2012, published 2015).

Assays:
Type in all cases: cell-based
[1] = system: WM266.4; experiment: Single-dose cell viability of forskolin-treated cells with MAPK-pathway and HDAC inhibitors; conditions: sub-lethal doses; Panobinostat 10 nM, Vorinostat 1.5 μM, Entinostat 1.5 μM; 96 hrs
Description: Twenty-four hours after seeding, serial dilutions of the relevant compound were prepared in DMSO to 1000× stocks. Drug stocks were then diluted 1:100 into appropriate growth media and added to cells at a dilution of 1:10 (lx final), yielding drug concentrations ranging from 100 μM to 1×10-5 μM, with the final volume of DMSO not exceeding 1%. When indicated, forskolin (10 μM), IBMX (100 μM), dbcAMP (100 μM) were added concurrent with MAPK-pathway inhibitors. Cells were incubated for 96 h following addition of drug. Cell viability was measured using CellTiterGlo viability assay (Promega). Viability was calculated as a percentage of control (DMSO treated cells). A minimum of six replicates were performed for each cell line and drug combination. Data from growth-inhibition assays were modeled using a nonlinear regression curve fit with a sigmoid dose-response. […] For single-dose studies, WM266.4 were seeded at 5,000 cells/well in 96-well, white-walled, clear bottom plates and the identical protocol (above) was followed, using a single dose of indicated drug.

[2] = system: A375; experiment: PLX4720 and MAPK inhibitor sensitivity of ORF-expressing A375 (secondary screen); conditions: for effect of ectopic GEF expression on sensitivity to the inhibitor: A375 transfected with GEF ORFS; for sensitivity of A375 to the inhibitor: parental A375 cell line
Description: A375 (1.5×10^3) and SKMEL28 cells (3×10^3) were seeded in 96-well plates for 18 h. ORF-expressing lentivirus was added at a 1:10 dilution in the presence of 8 μg/ml polybrene, and centrifuged at 2250 RPM and 37° C. for 1 h. Following centrifugation, virus-containing media was changed to normal growth media and allowed to incubate for 18 h. Twenty-four hours after infection, DMSO (1:1000) or 10× PLX4720 (in DMSO) was added to a final concentration of 100, 10, 1, 0.1, 0.01, 0.001, 0.0001 or 0.00001 μM. Cell viability was assayed using WST-1 (Roche), per manufacturer recommendation, 4 days after the addition of PLX4720.
Cultured cells were seeded into 96-well plates (3,000 cells per well) for all melanoma cell lines; 1,500 cells were seeded for A375. Twenty-four hours after seeding, serial dilutions of the relevant compound were prepared in DMSO added to cells, yielding final drug concentrations ranging from 100 μM to […], with the final volume of DMSO not exceeding 1%. Cells were incubated for 96 h following addition of drug. Cell viability was measured using the WST1 viability assay (Roche). Viability was calculated as a percentage of control (untreated cells) after background subtraction. A minimum of six replicates were performed for each cell line and drug combination. Data from growth-inhibition assays were modeled using a nonlinear regression curve fit with a sigmoid dose-response. […] Sigmoid-response curves that crossed the 50% inhibition point at or above 10 μM have GI50 values annotated as >10 μM. For single-dose studies, the identical protocol was followed, using a single dose of indicated drug (1 μM unless otherwise noted).

[3] = system: WM266.4; experiment: Western blot of CREB and ERK phosphorylation; conditions: WM266.4, 1 hr treatment
Description: (§1) Adherent cells were washed once with ice-cold PBS and lysed passively with 1% NP-40 buffer [150 mM NaCl, 50 mM Tris pH 7.5, 2 mM EDTA pH 8, 25 mM NaF and 1% NP-40] containing 2× protease inhibitors (Roche) and 1× Phosphatase Inhibitor Cocktails I and II (CalBioChem). Lysates were quantified (Bradford assay), normalized, reduced, denatured (95° C.) and resolved by SDS gel electrophoresis on 4-20% Tris/Glycine gels (Invitrogen). […] After incubation with the appropriate secondary antibody (anti-rabbit, anti-mouse or anti-goat IgG, IRDye-linked; 1:15,000 dilution; IRDye 800CW, 1:20,000 IRDye 680LT, LiCOR), proteins were imaged using an Odyssey CLx scanner (LiCOR).

[4] = system: WM266.4; experiment: Quantitative RT/PCR of MITF, FOS, NR4A1 and NR4A2 mRNA; conditions: within 1 hour of treatment, absence of MEK inhibitor
Description: mRNA was extracted from WM266.4 using the RNeasy kit (Qiagen) and homogenized using the Qiashredder kit (Qiagen). Total mRNA was used for subsequent reverse transcription using the SuperScript III First-Strand Synthesis SuperMix (Invitrogen). 5 μl of reverse-transcribed cDNA was used for quantitative PCR using SYBR Green PCR Master Mix and gene-specific primers, in quadruplicate, using an ABI PRISM 7900 Real Time PCR System. Primers used for detection were as follows; NR4A2 forward: 5′-GTTCAGGCGCAGTATGGGTC-3′ (SEQ ID NO: 7); NR4A2 reverse: 5′-AGAGTGGTAACTGTAGCTCTGAG-3′ (SEQ ID NO: 8); NR4A1 forward: 5′-ATG CCC TGT ATC CAA GCC C-3′ (SEQ ID NO: 9); NR4A1 reverse: 5′-GTGTAGCCGTCCATGAAGGT-3′ (SEQ ID NO: 10); DUSP6 forward: 5′-CTG CCG GGC GTT CTA CCT-3′ (SEQ ID NO: 11); DUSP6 reverse: 5′-CCAGCCAAGCAATGTACCAAG-3′ (SEQ ID NO: 12); MITF forward: 5′-TGC CCA GGC ATG AAC ACA C-3′ (SEQ ID NO: 13); MITF reverse: 5′-TGGGAAAAATACACGCTGTGAG-3′ (SEQ ID NO: 14); FOS forward: 5′-CACTCCAAGCGGAGACAGAC-3′ (SEQ ID NO: 15); FOS reverse: 5′-AGGTCATCAGGGATCTTGCAG-3′ (SEQ ID NO: 16); TBP forward: 5′-CCCGAAACGCCGAATATAATCC-3′ (SEQ ID No: 17); TBP reverse: 5′-GACTGTTCTTCACTCTTGGCTC-3′ (SEQ ID NO: 18). Relative expression was determined using the comparative CT method (Applied Biosystems).

[5] = system: WM266.4; experiment: Immunoblots of MITF, SOX10, acetylated histone H3 and other proteins in melanoma cells; conditions: for acetylated histone H3: WM266.4, 18 hours; for SOX10 and MITF expression: WM266.4, independent of ERK phosphorylation
Description: as §1

## Nc1ccccc1NC(=O)c1ccc(CNC(=O)OCc2cccnc2)cc1 [Entinostat]
[1]
  sensitivity of forskolin-treated cells to MAPK-pathway inhibitors: restored sensitivity to MAPK-pathway inhibitors to levels approaching parental cells

## Cn1cnc2c(F)c(Nc3ccc(Br)cc3Cl)c(C(=O)NOCCO)cc21 [AZD6244]
[2]
  effect of ectopic GEF expression on sensitivity to the inhibitor: decreased sensitivity
  sensitivity of A375 to the inhibitor: sensitive

## C=C[C@@]1(C)CC(=O)[C@]2(O)[C@@]3(C)[C@@H](O)CCC(C)(C)[C@@H]3[C@H](O)[C@H](OC(C)=O)[C@@]2(C)O1 [forskolin]
[3]
  ERK phosphorylation: no effect
[4]
  increases in mRNA expression of MITF, FOS, NR4A1 and NR4A2: 2- to 20 fold

## Cc1[nH]c2ccccc2c1CCNCc1ccc(/C=C/C(=O)NO)cc1 [Panobinostat]
[5]
  acetylated histone H3: increases
  SOX10 and MITF expression: reduction
[1]
  sensitivity of forskolin-treated cells to MAPK-pathway inhibitors: restored sensitivity to MAPK-pathway inhibitors to levels approaching parental cells

## O=S(=O)(NCCNC/C=C/c1ccc(Br)cc1)c1cccc2cnccc12 [H89]
[5]; WM266.4, 10 μM H89 pre-treatment
  effect on forskolin-mediated rescue of MITF protein expression: largely abrogated

## Cc1cnc(Nc2ccc(F)cc2Cl)nc1-c1c[nH]c(C(=O)N[C@H](CO)c2cccc(Cl)c2)c1 [VTX-11E]
[2]
  effect of ectopic GEF expression on sensitivity to the inhibitor: decreased sensitivity
  sensitivity of A375 to the inhibitor: sensitive

## O=C(CCCCCCC(=O)Nc1ccccc1)NO [Vorinostat]
[5]
  acetylated histone H3: increases
  SOX10 and MITF expression: reduction
